Measurements from ChEMBL document CHEMBL1127276, “Chemical and plasma hydrolyses of a diphenyl -aminomethyl phosphonate prodrug inhibitor of neutral endopeptidase 24.11” (Bioorg Med Chem Lett, 1994).

Columns and labels:
[1] = Half life at a pH 8.44 in NaHCO3 medium; format: ADME
[2] = Half life at a pH 8.78 in KHCO3 medium; format: ADME
[3] = Half life at a pH 13.65 in KOH medium; format: ADME
[4] = In vitro half life at 1.5 -5.6ug/mL, 37 degree C in monkey plasma; format: ADME, cell-free; settings: cercopithecidae
[5] = Half life at a pH 12.01 in […] medium; format: ADME
[6] = In vitro half life at 1.5 -5.6ug/mL, 37 degree C in dog plasma; format: ADME, Canis lupus familiaris
[7] = Half life at a pH 8.5 in Na2HPO4/NaH2PO4 medium; format: ADME
[8] = In vitro half life at 1.5 -5.6ug/mL, 37 degree C in human plasma; format: ADME, cell-free
[9] = In vitro half life at 1.5 -5.6ug/mL, 37 degree C in rat plasma; format: ADME
[10] = Ionization constant in basic (NH2+) medium; format: physicochemical; settings: read-out: pKa4
[11] = Ionization constant in slightly acidic(POH) medium; format: physicochemical; settings: read-out: pKa3
[12] = Ionization constant in acidic (COOH)medium; format: physicochemical; settings: read-out: pKa2

Structure (SMILES)	half-life [1] [h]	half-life [2] [h]	half-life [3] [min]	half-life [4] [h]	half-life [5] [h]	half-life [6] [h]	half-life [7] [h]	half-life [8] [h]	half-life [9] [h]	pKa [10]	pKa [11]	pKa [12]
O=C(O)CCNC(=O)[C@H](Cc1ccc(-c2ccccc2)cc1)NCP(=O)(Oc1ccccc1)Oc1ccccc1	8.68	8.19	< 5	4.7	< 0.167	13	> 96	1.4	2.5	–	–	–
O=C(O)CCNC(=O)[C@H](Cc1ccc(-c2ccccc2)cc1)NCP(=O)(O)O	–	–	–	–	–	–	–	–	–	10	7.8	5.5
O=C(O)CCNC(=O)[C@H](Cc1ccc(-c2ccccc2)cc1)NCP(=O)(O)Oc1ccccc1	0.55	0.51	> 6	> 7.8	> 0.1	38	> 6	4.2	9.4	10	–	5.8
